Measured values as given in patent EP4800018A1, “PAN-KRAS INHIBITOR AND USE THEREOF IN MEDICINES” (Betta Pharmaceuticals Co., Ltd., priority 2023, dated 2025).
Like-named read-outs stand apart in the source and are kept apart here.

Columns and labels:
Format in all cases: cell-based
[1] = test system: KRAS-G12V mutant tumor cells SW620; assay: Cell Proliferation Inhibition Assay (SW620), Cell-titer GLO, 96 h; details: Homo sapiens, SW-620, 96 h, read-out: SW620(G12V)
Procedure, shortened: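 SW620 cells (1×10^3/well, low-attachment) were exposed to compound from 10000 to 0.03 nM (0.5% DMSO) for 96 h at 37°C. Viability was read by Cell-titer GLO luminescence. Inhibition was calculated relative to DMSO and blank wells, and IC50 obtained by curve fitting.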

KRAS G12V-cRAF = biological target: T1, KRAS G12V-cRAF (Homo sapiens, UniProt P01116, G12V); assay: Cellular KRAS G12V-cRAF Binding Inhibition Assay (NanoBRET, AD293 stable cells)
T1 construct: expressed in transfected cells
Description: NanoLuc® luciferase was used as the energy donor, and NanoBRET™ 618 fluorescent ligand labeled with the HaloTag® protein was used as the energy acceptor to detect protein-protein interactions in living cells. […] Except for wells with medium added as a blank control, NanoBRET™ 618 fluorescent ligand was added to all other wells, and the plates were cultured overnight in a cell culture incubator. […] The luminescence data were calculated and converted into inhibition percent. The inhibition percent of KRAS G12V-cRAF binding was calculated according to the following formula: Inhibition Percent = (MaxValue−MeasuredValue)/(MaxValue−Blank) × 100% [formula] […] Curve fitting was performed using GraphPad Prism software to obtain IC50 values, see Table 1.

KRAS G12D-cRAF = biological target: T2, KRAS G12D-cRAF (Homo sapiens, UniProt P01116, G12D); assay: Cellular KRAS G12D-cRAF Binding Inhibition Assay (NanoBRET, AD293 stable cells)
T2 construct: expressed in transfected cells
Description: NanoLuc® luciferase was used as the energy donor, and NanoBRET™ 618 fluorescent ligand labeled with the HaloTag® protein was used as the energy acceptor to detect protein-protein interactions in living cells. AD293 stable cells transfected with KRAS G12D-NanoLuc® luciferase and cRAF RBD-HaloTag® tag protein were seeded in 96-well plates at a cell density of 1×10^4 cells/well. Except for wells with medium added as a blank control, NanoBRET™ 618 fluorescent ligand was added to all other wells, and the plates were cultured overnight in a cell culture incubator. […] The luminescence data were calculated and converted into inhibition percent. The inhibition percent of KRAS G12D-cRAF binding was calculated according to the following formula: Inhibition Percent = (MaxValue−MeasuredValue)/(MaxValue−Blank) × 100% [formula] […] Curve fitting was performed using GraphPad Prism software to obtain IC50 values, see Table 1.

[2] = test system: KRAS-G12D mutant tumor cells AGS; assay: Cell Proliferation Inhibition Assay (AGS), Cell-titer GLO, 96 h; details: Homo sapiens, AGS, 96 h, read-out: AGS(G12D)
Procedure, shortened: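 AGS cells (KRAS-G12D) grown in low-attachment plates were exposed to compound for 96 h at 37°C. Viability was read by CellTiter-Glo luminescence and converted to % inhibition against max and blank wells. IC50 came from curve fitting.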

[3] = SW620 cells, 96 h incubation, Cell-titer GLO
[4] = 3 h incubation, read-out: NanoBRET KRAS G12V
[5] = 3 h incubation, read-out: NanoBRET KRAS G12D
[6] = AGS cells, 96 h incubation, Cell-titer GLO

T2 sequence (P01116 1-188 isoform P01116-2 G12D): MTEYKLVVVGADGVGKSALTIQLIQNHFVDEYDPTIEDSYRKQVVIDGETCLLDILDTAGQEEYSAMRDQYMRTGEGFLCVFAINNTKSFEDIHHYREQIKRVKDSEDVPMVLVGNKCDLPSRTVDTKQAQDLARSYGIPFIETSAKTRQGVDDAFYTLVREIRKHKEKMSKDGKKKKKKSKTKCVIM
T1 sequence (P01116 1-188 isoform P01116-2 G12V): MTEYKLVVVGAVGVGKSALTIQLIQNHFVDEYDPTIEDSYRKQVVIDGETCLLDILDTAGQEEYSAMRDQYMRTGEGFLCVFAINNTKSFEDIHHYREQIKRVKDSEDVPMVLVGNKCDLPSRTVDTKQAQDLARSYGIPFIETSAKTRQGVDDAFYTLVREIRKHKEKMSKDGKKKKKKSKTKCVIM

Structure (SMILES)	IC50 [1, 3]	IC50 (KRAS G12V-cRAF; [4])	IC50 (KRAS G12D-cRAF; [5])	IC50 [2, 6]	IC50 [1]	IC50 [2]	IC50 (KRAS G12V-cRAF; read-out: NanoBRET KRAS G12V, 3 h incubation)	IC50 (KRAS G12D-cRAF; read-out: NanoBRET KRAS G12D, 3 h incubation)
CC1OCCCn2c(c3c4cc(ccc42)-c2csc(n2)CC(NC(=O)C2CC2C(F)F)C(=O)N2CCCC(N2)C(=O)OCC(C)(C)C3)-c2cc(-c3ccc(N4CCN(C)CC4)cc3)cnc21 [Example 96, (1S,2S)-2-(difluoromethyl)-N-((1^5S,6^3S,4S,Z)-1^5,10,10-trimethyl-1^2-(4-(4-methylpiperazin-1-yl)phenyl)-5,7-dioxo-1^8,1^9,6^1,6^2,6^3,6^4,6^5,6^6-octahydro-15H,17H-8-oxa-1(13,15)-pyrido[3',2':7,8][1, 5]oxazonino[5,6-a]indola-2(4,2)-thiazola-6(1,3)-pyridazinacycloundecaphane-4-yl)cyclopropane-1-carboxamide]	1.07 nM	19.8 nM	5.99 nM	2.4 nM				
CC1OCCCn2c(c3c4cc(ccc42)-c2csc(n2)CC(NC(=O)C24CC(C)(C2)C4)C(=O)N2CCCC(N2)C(=O)OCC(C)(C)C3)-c2cc(N3CCN(CC(F)F)CC3)cnc21 [Example 98, N-((1^5S,6^3S,4S,Z)-1^2-(4-(2,2-difluoroethyl)piperazin-1-yl)-1^5,10,10-trimethyl-5,7-dioxo-1^8,1^9,6^1, 6^2,6^3,6^4,6^5,6^6-octahydro-1^5H,1^7H-8-oxa-1(13,15)-pyrido[3',2':7,8][1,5]oxazonino[5,6-a]indola-2(4,2)-thiazola-6(1,3)-pyridazinacycloundecaphane-4-yl)-3-methylbicyclo[1.1.1]pentane-1-carbox amide]	3.87 nM	61.7 nM	14.8 nM	13.2 nM				
CC1OCCCn2c(c3c4cc(ccc42)-c2csc(n2)CC(NC(=O)C2CC2C(F)F)C(=O)N2CCCC(N2)C(=O)OCC(C)(C)C3)-c2cc(N3CC(N4CCN(C)CC4)C3)cnc21 [Example 99, (1S,2S)-2-(difluoromethyl)-N-((1^5S,6^3S,4S,Z)-1^5,10,10-trimethyl-1^2-(3-(4-methylpiperazin-1-yl)azetidin-1-yl)-5,7-dioxo-1^8,1^9,6^1,6^2,6^3,6^4,6^5,6^6-octahydro-1^5H,1^7H-8-oxa-1(13,15)-pyrido[3',2':7, 8][1,5]oxazonino[5,6-a]indola-2(4,2)-thiazola-6(1,3)-pyridazinacycloundecaphane-4-yl)cyclopro pane-1-carboxamide]		13.3 nM	4.25 nM		0.14 nM	0.74 nM		
C[C@@H]1OCCCn2c(c3c4cc(ccc42)-c2csc(n2)C[C@H](NC(=O)[C@H]2C[C@@H]2C(F)F)C(=O)N2CCC[C@H](N2)C(=O)OCC(C)(C)C3)-c2cc(N3CC4(CCN(C)CC4)C3)cnc21 [Example 100, (1S,2S)-2-(difluoromethyl)-N-((1^5S,6^3S,4S,Z)-1^5,10,10-trimethyl-1^2-(7-methyl-2,7-diazaspiro[3. 5]nonan-2-yl)-5,7-dioxo-1^8,1^9,6^1,6^2,6^3,6^4,6^5,6^6-octahydro-1^5H,1^7H-8-oxa-1(13,15)-pyrido[3',2':7, 8][1,5]oxazonino[5,6-a]indola-2(4,2)-thiazola-6(1,3)-pyridazinacycloundecaphane-4-yl)cyclopro pane-1-carboxamide]					0.1 nM	0.44 nM	21.7 nM	4.55 nM
CC1OCCCn2c(c3c4cc(ccc42)-c2csc(n2)CC(NC(=O)C2CC2C(F)F)C(=O)N2CCCC(N2)C(=O)OCC(C)(C)C3)-c2cc(N3CCC(N4CCN(C)CC4)CC3)cnc21 [Example 102, (1S,2S)-2-(difluoromethyl)-N-((1^5S,6^3S,4S,Z)-1^5,10,10-trimethyl-1^2-(4-(4-methylpiperazin-1-yl)piperidin-1-yl)-5,7-dioxo-1^8,1^9,6^1,6^2,6^3,6^4,6^5,6^6-octahydro-1^5H,1^7H-8-oxa-1(13,15)-pyrido[3',2':7 ,8][1,5]oxazonino[5,6-a]indola-2(4,2)-thiazola-6(1,3)-pyridazinacycloundecaphane-4-yl)cyclopr opane-1-carboxamide]	0.17 nM	14.7 nM	4.13 nM	0.38 nM				
CC1OCCCn2c(c3c4cc(ccc42)-c2csc(n2)CC(NC(=O)C2CC2C(F)F)C(=O)N2CCCC(N2)C(=O)OCC(C)(C)C3)-c2cc(N3CCN(C4CCN(C)CC4)CC3)cnc21 [Example 104, (1S,2S)-2-(difluoromethyl)-N-((1^5S,6^3S,4S,Z)-1^5,10,10-trimethyl-1^2-(4-(1-methylpiperidin-4-yl)piperazin-1-yl)-5,7-dioxo-1^8,1^9,6^1,6^2,6^3,6^4,6^5,6^6-octahydro-1^5H,1^7H-8-oxa-1(13,15)-pyrido[3',2': 7,8][1,5]oxazonino[5,6-a]indola-2(4,2)-thiazola-6(1,3)-pyridazinacycloundecaphane-4-yl)cyclop ropane-1-carboxamide]	0.2 nM	11.8 nM	3.2 nM	0.63 nM				

Second part, led by results:

IC50 [1, 3]	IC50 (KRAS G12V-cRAF; [4])	IC50 (KRAS G12D-cRAF; [5])	IC50 [2, 6]	Structure (SMILES)	IC50 [1]	IC50 [2]	IC50 (KRAS G12V-cRAF; read-out: NanoBRET KRAS G12V, 3 h incubation)	IC50 (KRAS G12D-cRAF; read-out: NanoBRET KRAS G12D, 3 h incubation)
0.34 nM	22.7 nM	6.55 nM	2.68 nM	CC1OCCCn2c(c3c4cc(ccc42)-c2csc(n2)CC(NC(=O)C2CC2C(F)F)C(=O)N2CCCC(N2)C(=O)OCC(C)(C)C3)-c2cc(N3CC(N(C)C)C3)cnc21 [Example 94, (1S,2S)-2-(difluoromethyl)-N-((1^5S,6^3S,4S,Z)-1^2-(3-(dimethylamino)azetidin-1-yl)-1^5,10,10-trimethyl-5,7-dioxo-1^8,1^9,6^1,6^2,6^3,6^4,6^5,6^6-octahydro-1^5H,1^7H-8-oxa-1(13,15)-pyrido[3',2':7,8][1,5]oxazonino[5,6-a]indola-2(4,2)-thiazola-6(1,3)-pyridazinacycloundecaphane-4-yl)cyclopropane-1-carboxamide]				
0.42 nM	61.8 nM	11.9 nM	2.69 nM	CC1OCCCn2c(c3c4cc(ccc42)-c2csc(n2)CC(NC(=O)C2CC2C(F)F)C(=O)N2CCCC(N2)C(=O)OCC(C)(C)C3)-c2cc(OC3CCN(C)CC3)cnc21 [Example 97, (1S,2S)-2-(difluoromethyl)-N-((1^5S,6^3S,4S,Z)-1^5,10,10-trimethyl-1^2-((1-methylpiperidin-4-yl)oxy)-5,7-dioxo-1^8,1^9,6^1,6^2,6^3,6^4,6^5,6^6-octahydro-1^5H,1^7H-8-oxa-1(13,15)-pyrido[3',2':7,8][1,5]oxazonino[5,6-a]indola-2(4,2)-thiazola-6(1,3)-pyridazinacycloundecaphane-4-yl)cyclopropane-1-carb oxamide]				
0.26 nM	12 nM	2.74 nM	1.4 nM	COCCN1CCN(c2cnc3c(c2)-c2c4c5cc(ccc5n2CCCOC3C)-c2csc(n2)CC(NC(=O)C2CC2C(F)F)C(=O)N2CCCC(N2)C(=O)OCC(C)(C)C4)CC1 [Example 101, (1S,2S)-2-(difluoromethyl)-N-((1^5S,6^3S,4S,Z)-1^2-(4-(2-methoxyethyl)piperazin-1-yl)-1^5,10,10-trimethyl-5,7-dioxo-1^8,1^9,6^1,6^2,6^3,6^4,6^5,6^6-octahydro-1^5H,1^7H-8-oxa-1(13,15)-pyrido[3',2':7,8][1,5]oxazonino[5,6-a]indola-2(4,2)-thiazola-6(1,3)-pyridazinacycloundecaphane-4-yl)cyclopropane-1-carboxamide]				
0.21 nM	22.2 nM	7.74 nM	0.85 nM	CC1OCCCn2c(c3c4cc(ccc42)-c2csc(n2)CC(NC(=O)C2CC2C(F)F)C(=O)N2CCCC(N2)C(=O)OCC(C)(C)C3)-c2cc(N3CCC4(CCN(C)CC4)CC3)cnc21 [Example 103, (1S,2S)-2-(difluoromethyl)-N-((1^5S,6^3S,4S,Z)-1^5,10,10-trimethyl-1^2-(9-methyl-3,9-diazaspiro[5. 5]undecan-3-yl)-5,7-dioxo-1^8,1^9,6^1,6^2,6^3,6^4,6^5,6^6-octahydro-1^5H,1^7H-8-oxa-1(13,15)-pyrido[3',2': 7,8][1,5]oxazonino[5,6-a]indola-2(4,2)-thiazola-6(1,3)-pyridazinacycloundecaphane-4-yl)cyclop ropane-1-carboxamide]				
